{"source": "ChEMBL document CHEMBL1201862", "about": "“PubChem BioAssay data set” (2004)", "key": {"[1]": {"target": "Peroxisome proliferator-activated receptor gamma/Nuclear receptor coactivator 3 (Homo sapiens, UniProt P37231)", "format": "functional"}, "[2]": {"target": "Peroxisome proliferator-activated receptor gamma/Nuclear receptor coactivator 2 (Homo sapiens, UniProt P37231)", "format": "functional"}, "[3]": {"target": "Peroxisome proliferator-activated receptor gamma/Nuclear receptor coactivator 1 (Homo sapiens, UniProt P37231)", "format": "functional"}, "[4]": {"target": "Ion channel NompC (Danio rerio, UniProt Q7T1G6)", "test": "Fluorescence counterscreen assay for TRPML3 agonists: dose response cell-based high-throughput screening assay to identify agonists of the transient receptor potential channel N1 (TRPN1). [Related pubchem assays: 1526, 1424, 1448 ]", "format": "functional"}, "[5]": {"target": "Mucolipin-3 (Homo sapiens, UniProt Q8TDD5)", "sequence (Q8TDD5 whole entry)": "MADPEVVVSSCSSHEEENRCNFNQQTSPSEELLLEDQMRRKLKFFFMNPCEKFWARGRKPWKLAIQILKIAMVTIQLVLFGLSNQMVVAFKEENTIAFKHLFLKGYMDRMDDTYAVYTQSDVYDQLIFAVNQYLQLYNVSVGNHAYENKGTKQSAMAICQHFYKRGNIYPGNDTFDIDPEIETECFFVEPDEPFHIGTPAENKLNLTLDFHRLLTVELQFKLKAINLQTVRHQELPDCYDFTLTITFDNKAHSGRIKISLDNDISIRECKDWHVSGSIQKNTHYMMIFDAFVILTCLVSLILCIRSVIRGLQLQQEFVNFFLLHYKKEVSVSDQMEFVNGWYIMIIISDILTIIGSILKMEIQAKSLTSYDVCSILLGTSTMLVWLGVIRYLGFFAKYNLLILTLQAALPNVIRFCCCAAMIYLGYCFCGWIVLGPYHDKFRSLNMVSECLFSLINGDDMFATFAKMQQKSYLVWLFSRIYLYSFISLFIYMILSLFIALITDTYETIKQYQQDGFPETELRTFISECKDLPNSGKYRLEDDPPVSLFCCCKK", "test": "Dose response cell-based high-throughput screening assay for agonists of the transient receptor potential channel ML3 (TRPML3). [Related pubchem assays: 1526, 1424, 1448 ]", "format": "functional"}, "[6]": {"target": "T1, Voltage-gated N-type calcium channel alpha-1B subunit/Amyloid beta A4 precursor protein-binding family A member 1 (Homo sapiens, UniProt Q00975+Q02410)", "T1 sequence (Q00975 whole entry)": "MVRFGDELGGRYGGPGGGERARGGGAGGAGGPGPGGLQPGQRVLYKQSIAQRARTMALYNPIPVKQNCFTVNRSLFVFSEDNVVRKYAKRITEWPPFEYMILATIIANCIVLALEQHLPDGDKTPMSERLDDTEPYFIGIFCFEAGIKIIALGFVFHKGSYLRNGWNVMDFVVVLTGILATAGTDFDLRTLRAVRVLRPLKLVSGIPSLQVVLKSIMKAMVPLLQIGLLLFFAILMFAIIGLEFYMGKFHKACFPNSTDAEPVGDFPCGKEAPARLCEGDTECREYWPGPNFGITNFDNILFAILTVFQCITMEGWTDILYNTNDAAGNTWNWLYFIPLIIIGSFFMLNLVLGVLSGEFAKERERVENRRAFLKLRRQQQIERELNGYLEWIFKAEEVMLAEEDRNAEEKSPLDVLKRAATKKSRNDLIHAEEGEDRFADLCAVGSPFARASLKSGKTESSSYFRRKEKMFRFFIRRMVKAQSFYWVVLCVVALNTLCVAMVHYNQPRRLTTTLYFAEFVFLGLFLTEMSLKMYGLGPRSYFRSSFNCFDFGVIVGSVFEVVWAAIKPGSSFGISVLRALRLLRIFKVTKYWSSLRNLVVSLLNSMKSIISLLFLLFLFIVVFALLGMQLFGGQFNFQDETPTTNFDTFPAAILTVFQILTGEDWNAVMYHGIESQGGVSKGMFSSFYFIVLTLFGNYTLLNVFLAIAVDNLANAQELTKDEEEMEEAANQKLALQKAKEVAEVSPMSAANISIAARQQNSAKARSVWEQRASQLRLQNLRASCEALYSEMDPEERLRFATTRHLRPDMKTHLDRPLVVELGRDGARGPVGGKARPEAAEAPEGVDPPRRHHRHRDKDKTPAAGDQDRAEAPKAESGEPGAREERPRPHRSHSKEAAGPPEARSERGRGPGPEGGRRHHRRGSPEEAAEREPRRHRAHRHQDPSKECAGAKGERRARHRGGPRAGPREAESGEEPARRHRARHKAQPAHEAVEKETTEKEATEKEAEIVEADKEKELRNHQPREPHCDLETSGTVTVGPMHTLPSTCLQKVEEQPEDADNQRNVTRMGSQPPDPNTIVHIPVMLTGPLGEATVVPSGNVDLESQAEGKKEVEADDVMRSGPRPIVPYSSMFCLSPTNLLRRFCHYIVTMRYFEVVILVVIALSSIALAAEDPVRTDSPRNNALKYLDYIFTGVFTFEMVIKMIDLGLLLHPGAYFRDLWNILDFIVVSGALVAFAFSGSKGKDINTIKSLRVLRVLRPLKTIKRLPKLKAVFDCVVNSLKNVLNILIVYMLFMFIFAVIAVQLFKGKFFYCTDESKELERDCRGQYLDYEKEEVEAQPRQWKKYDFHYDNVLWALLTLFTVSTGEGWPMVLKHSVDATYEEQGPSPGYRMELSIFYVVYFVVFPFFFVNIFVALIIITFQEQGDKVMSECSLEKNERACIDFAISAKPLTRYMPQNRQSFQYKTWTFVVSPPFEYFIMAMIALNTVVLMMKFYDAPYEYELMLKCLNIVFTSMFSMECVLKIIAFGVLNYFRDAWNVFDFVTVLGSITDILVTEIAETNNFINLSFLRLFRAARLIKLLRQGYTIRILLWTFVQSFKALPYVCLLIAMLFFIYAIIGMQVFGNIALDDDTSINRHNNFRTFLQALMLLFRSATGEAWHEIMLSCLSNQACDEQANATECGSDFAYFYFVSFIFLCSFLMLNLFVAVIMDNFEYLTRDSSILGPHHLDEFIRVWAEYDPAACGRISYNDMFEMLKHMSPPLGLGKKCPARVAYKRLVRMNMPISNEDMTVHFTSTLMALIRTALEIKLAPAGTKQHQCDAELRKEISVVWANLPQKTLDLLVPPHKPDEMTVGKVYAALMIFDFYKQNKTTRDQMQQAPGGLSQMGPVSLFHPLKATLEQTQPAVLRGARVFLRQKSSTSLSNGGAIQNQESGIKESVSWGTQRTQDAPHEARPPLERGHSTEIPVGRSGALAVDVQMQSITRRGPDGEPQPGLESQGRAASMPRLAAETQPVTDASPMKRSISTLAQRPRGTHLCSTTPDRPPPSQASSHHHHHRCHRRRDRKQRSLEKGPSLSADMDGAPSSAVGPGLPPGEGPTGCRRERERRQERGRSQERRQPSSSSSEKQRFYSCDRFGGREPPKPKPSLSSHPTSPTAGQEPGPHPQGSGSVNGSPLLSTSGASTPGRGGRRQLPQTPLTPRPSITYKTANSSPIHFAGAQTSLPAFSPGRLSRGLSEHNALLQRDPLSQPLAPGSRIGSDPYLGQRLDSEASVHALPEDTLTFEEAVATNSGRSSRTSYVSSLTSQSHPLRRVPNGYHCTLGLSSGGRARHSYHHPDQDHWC", "T1 sequence (Q02410 whole entry)": "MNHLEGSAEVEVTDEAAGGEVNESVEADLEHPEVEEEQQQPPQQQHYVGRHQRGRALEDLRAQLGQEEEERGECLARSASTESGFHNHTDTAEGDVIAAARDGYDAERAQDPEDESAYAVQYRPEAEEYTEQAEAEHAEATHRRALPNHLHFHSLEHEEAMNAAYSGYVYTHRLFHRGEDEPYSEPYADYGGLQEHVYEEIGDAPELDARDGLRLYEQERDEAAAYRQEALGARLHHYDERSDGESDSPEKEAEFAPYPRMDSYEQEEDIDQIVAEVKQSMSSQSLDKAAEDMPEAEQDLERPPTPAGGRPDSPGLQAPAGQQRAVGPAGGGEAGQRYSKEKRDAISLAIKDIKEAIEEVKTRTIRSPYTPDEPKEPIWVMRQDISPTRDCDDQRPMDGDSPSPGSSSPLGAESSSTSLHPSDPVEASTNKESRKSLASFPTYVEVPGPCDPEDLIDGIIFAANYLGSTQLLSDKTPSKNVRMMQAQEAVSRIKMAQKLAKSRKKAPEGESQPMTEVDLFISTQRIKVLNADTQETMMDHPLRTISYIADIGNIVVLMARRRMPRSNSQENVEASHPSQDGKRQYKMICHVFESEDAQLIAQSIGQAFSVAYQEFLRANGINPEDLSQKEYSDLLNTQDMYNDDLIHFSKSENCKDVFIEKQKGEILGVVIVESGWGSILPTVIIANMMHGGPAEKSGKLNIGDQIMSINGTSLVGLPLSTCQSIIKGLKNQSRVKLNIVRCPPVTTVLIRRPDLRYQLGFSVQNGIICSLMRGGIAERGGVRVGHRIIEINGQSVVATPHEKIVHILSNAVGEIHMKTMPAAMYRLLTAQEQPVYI", "test": "disruptors of Mint-PDZ/N-type channel peptide interaction – biochemical, HTRF, set 2, SAR follow-up (AID 434980)", "format": "functional"}, "[7]": {"target": "T2, Bcl-2-like protein 10 (Homo sapiens, UniProt Q9HD36)", "T2 sequence (Q9HD36 whole entry)": "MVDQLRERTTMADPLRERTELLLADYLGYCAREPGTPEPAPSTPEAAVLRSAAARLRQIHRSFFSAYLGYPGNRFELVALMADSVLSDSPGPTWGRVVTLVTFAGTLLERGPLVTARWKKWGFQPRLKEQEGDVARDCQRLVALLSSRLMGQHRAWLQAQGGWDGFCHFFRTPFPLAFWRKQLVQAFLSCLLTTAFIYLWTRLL", "test": "Bcl-B/TR3 peptide binding disruption – biochemical, fluorescence polarization, FITC-TR3 peptide, selectivity assay for Bfl-1 inhibitor project, primary screen (AID 748)"}, "[8]": {"target": "SUMO E1/E2 (Homo sapiens, UniProt P63279+Q9UBE0+Q9UBT2)", "test": "SAR analysis of SUMOylation using HTRF in an in-Vitro dose response assay. [Related pubchem assays (depositor defined):AID2006, AID2011, AID2018, AID2069, AID2658]", "format": "functional"}, "[9]": {"target": "T3, Estrogen receptor beta (Homo sapiens, UniProt Q92731)", "T3 sequence (Q92731 whole entry)": "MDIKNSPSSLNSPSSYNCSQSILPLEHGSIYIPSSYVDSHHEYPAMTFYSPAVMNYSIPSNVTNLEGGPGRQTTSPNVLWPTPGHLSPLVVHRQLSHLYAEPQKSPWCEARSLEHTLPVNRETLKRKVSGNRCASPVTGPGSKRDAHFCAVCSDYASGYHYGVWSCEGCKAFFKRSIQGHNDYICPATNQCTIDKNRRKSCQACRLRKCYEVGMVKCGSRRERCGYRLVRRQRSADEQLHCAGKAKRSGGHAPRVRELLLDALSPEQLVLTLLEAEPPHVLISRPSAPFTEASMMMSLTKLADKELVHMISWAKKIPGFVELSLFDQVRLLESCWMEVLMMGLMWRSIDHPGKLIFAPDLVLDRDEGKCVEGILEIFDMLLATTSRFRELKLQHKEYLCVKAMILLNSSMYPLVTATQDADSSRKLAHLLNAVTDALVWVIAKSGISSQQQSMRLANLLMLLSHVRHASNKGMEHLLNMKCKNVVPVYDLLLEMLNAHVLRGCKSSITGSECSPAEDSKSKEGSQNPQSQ"}, "[10]": {"target": "T3, Estrogen receptor beta", "test": "blockers of SRC-3 recruitment to ERβ – biochemical, ELISA, streptavidin-HRP readout, orthogonal assay, confirmation (AID 1060)"}, "[11]": {"target": "T1, Voltage-gated N-type calcium channel alpha-1B subunit/Amyloid beta A4 precursor protein-binding family A member 1", "test": "disruptors of Mint-PDZ/N-type channel peptide interaction – biochemical, HTRF, SAR follow-up (AID 2489)", "format": "functional"}, "[12]": {"target": "Sphingosine 1-phosphate receptor 2 (Homo sapiens, UniProt O95136)", "sequence (O95136 whole entry)": "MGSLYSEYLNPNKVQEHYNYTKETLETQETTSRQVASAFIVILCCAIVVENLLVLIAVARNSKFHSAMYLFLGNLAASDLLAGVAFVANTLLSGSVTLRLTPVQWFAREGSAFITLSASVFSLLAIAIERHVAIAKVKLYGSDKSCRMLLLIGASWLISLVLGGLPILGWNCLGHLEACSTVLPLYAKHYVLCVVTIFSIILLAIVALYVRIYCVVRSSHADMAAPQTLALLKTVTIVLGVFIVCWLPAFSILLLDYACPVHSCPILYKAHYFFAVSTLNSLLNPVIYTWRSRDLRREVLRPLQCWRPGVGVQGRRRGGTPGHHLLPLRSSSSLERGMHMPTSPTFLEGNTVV", "test": "Dose Response Cell Based Assay for Agonists of the S1P2 Receptor of Purchased Analogues. [Related pubchem assays: 729, 843, 854, 736 ]", "format": "functional"}, "[13]": {"test": "A High Throughput Confirmatory Assay used to Identify Novel Compounds that Inhibit Mycobacterium Tuberculosis in the absence of Glycerol.", "format": "functional"}, "[14]": {"test": "microbe, parasite or virus in culture", "format": "functional", "conditions": "Mycobacterium tuberculosis"}, "[15]": {"test_system": "HEK293", "test": "EBV LMP1 TES2 canonical NF-kB signalling blockers – cell-based, HEK293, luciferase, cherry-pick, dose response (AID 588343)", "format": "functional", "conditions": "Homo sapiens"}, "[16]": {"target": "Nonstructural protein 1 (Influenza A virus, UniProt Q194T2)", "format": "functional, Influenza A virus (A/California/07/2009(H1N1))"}, "[17]": {"test": "MIN6 cell viability loss – mouse insulinoma, cytotoxicity control, dose response (AID 2122);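 also: confirmatory high-throughput counterscreen run to flag cytotoxic compounds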", "format": "functional"}, "[18]": {"test": "decrease of insulin promoter-GFP reporter – imaging, high-content screening, mouse beta cells (AID 1628)", "format": "functional", "conditions": "MIN6"}, "[19]": {"test": "cells", "format": "functional, cell-based"}, "[20]": {"test": "NIH-3T3 fibroblast cytotoxicity, dose response, cytotoxicity control, cell-based, fluorescence, Alamar Blue, secondary assay (AID 2327)", "format": "functional"}, "[21]": {"test": "cells", "format": "functional, cell-based", "remark": "listed apart in the source"}, "[22]": {"test": "viability loss in HEK293 cells – cell-based, plate reader, cherry-picked samples, cytotoxicity control, dose response (AID 743446)", "format": "functional"}, "[23]": {"test": "Luminescence-based counterscreen assay for KLF5 inhibitors: dose response cell-based high throughput screening assay to identify cytotoxic compounds using the IEC-6 intestinal epithelial cell line. [Related pubchem assays: 1700 (Primary screen.), 1834 (Confirmation screen.), 1858 (Summary AID.), 1905 (Counterscreen.)]", "format": "functional"}, "[24]": {"test": "toxicity toward HepG2 liver cells – cell-based, plate reader, cherry-pick, antagonist series, cytotoxicity control, dose response (AID 743416)", "format": "functional"}, "[25]": {"test": "blockade of melanocortin 4 receptor signaling – cell-based, plate reader, cherry pick, counter-screen for LGR2 antagonist project, dose response (AID 743444);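 also: potency of inhibitors of the alpha-MSH evoked signal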", "format": "functional"}, "[26]": {"test": "A549 cell cytotoxicity, dose response, cytotoxicity control, plate reader, cherry-pick, antagonist series (AID 743412)", "format": "functional, cell-based"}, "[27]": {"test": "fluconazole-exposed Candida albicans growth modulators – fluorescence, retest, confirmation (AID 2467)", "format": "functional, cell-based"}, "[28]": {"test": "blockers of bursicon-stimulated LGR2 cAMP reporter – cell-based, HEK293, CRE-luciferase reporter, cherry pick, set 2, dose response (AID 743343);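 also: transfected cells were stimulated with diluted bursicon conditioned medium after compound addition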", "format": "functional"}, "[29]": {"target": "T4, Neuropeptide Y receptor type 1 (Homo sapiens, UniProt P25929)", "T4 sequence (P25929 whole entry)": "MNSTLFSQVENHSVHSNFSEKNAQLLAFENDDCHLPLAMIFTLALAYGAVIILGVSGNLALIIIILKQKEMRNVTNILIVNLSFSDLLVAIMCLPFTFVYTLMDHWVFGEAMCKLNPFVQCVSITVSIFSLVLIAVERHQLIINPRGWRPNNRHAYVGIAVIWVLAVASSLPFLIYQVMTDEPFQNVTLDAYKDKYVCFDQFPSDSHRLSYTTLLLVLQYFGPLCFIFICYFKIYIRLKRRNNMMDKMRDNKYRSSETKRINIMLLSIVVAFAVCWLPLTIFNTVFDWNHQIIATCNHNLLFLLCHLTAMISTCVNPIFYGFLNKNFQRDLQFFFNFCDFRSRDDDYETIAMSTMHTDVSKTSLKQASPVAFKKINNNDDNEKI", "test": "Fluorescence-based counterscreen for agonists of NPY-Y2: cell-based high-throughput dose response assay for agonists of NPY-Y1.", "format": "functional"}, "[30]": {"target": "Luciferin 4-monooxygenase (Photinus pyralis, UniProt P08659)", "test": "inhibition of purified Photinus pyralis luciferase – biochemical, luminescence, dose response (AID 1891)"}, "[31]": {"target": "Paired box protein Pax-8 (Homo sapiens, UniProt Q06710)", "sequence (Q06710 whole entry)": "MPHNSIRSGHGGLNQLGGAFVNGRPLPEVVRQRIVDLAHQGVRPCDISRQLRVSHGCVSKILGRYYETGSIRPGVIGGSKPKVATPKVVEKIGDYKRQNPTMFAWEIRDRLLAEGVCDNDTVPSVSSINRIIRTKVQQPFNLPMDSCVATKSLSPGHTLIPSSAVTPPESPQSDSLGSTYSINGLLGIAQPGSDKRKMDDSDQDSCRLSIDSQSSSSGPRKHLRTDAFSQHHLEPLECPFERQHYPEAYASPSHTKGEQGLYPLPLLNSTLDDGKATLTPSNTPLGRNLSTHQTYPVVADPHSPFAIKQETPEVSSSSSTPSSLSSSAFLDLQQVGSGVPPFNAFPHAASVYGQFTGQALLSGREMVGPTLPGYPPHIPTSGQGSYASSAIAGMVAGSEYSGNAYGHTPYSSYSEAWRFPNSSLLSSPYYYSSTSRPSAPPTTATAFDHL", "test": "PAX8 transcriptional activity inhibition in RMG-I – RMG-I cells, luciferase, cherry-pick, dose response (AID 687027);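 also: luciferase reporter driven by Pax8 target thyroperoxidase promoter measured by SteadyGlo luminescence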", "format": "functional, cell-based"}, "[32]": {"test_system": "HEK293", "test": "Fluorescence-based counterscreen for potentiators or agonists of NPY-Y2: cell-based high-throughput dose response assay to identify inhibitors of cyclic nucleotide gated ion channel (CNGC) activity. In this assay, the parental HEK293 cell line transfected with a cyclic-nucleotide gated ion channel (CNGC)-based cAMP sensor is used to measure inhibition of isoproterenol-induced CNGC activity by test compound.", "format": "functional", "conditions": "Homo sapiens"}, "[33]": {"target": "T5, Neuropeptide Y receptor type 2 (Homo sapiens, UniProt P49146)", "T5 sequence (P49146 whole entry)": "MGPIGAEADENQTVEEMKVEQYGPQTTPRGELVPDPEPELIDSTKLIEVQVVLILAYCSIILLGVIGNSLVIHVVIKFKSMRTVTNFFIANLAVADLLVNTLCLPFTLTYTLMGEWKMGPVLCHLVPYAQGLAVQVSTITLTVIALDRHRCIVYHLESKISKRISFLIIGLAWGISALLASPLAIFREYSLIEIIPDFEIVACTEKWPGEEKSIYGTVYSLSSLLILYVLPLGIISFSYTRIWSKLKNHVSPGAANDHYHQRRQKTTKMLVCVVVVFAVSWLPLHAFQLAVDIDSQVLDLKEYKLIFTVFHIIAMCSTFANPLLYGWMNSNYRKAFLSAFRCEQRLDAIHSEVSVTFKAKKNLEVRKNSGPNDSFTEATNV", "test": "Fluorescence-based cell-based high-throughput dose response assay for agonists of NPY-Y2. [Related pubchem assays: 1703 (Screening assay (CNGC inhibitors).), 1359 (Screening assay (NPY-Y2 potentiators or agonists).), 1304 (Screening assay (NPY-Y1 potentiators or agonists).), 1710 (Screening assay (NPY-Y2 agonists).), 1791 (Summary AID.)]", "format": "functional"}, "[34]": {"test": "Luminescence Cell-Based Dose Confirmation HTS to Identify Inhibitors of Platelet Dense Granule Release. [Related pubchem assays: 1663 (Primary HTS), 1678 (Summary of Project)]", "format": "functional"}}, "note": "The source made the active and inactive calls."}
{"smiles": "Cc1nn(Cc2c(F)cccc2Cl)c(C)c1[N+](=O)[O-]", "values": [{"measurement": "EC50", "setting": "[1]", "result": "> 79.4 µM (not active)"}, {"measurement": "EC50", "setting": "[2]", "result": "> 79.4 µM (not active)"}, {"measurement": "EC50", "setting": "[3]", "result": "> 79.4 µM (not active)"}]}
{"smiles": "COc1cccc(CN(CC2CCCO2)S(=O)(=O)c2ccc(S(=O)(=O)N(C)C)cc2)c1", "note": "(stereo not given)", "values": [{"measurement": "EC50", "setting": "[4]", "result": "> 29.9 µM (not active)"}, {"measurement": "EC50", "setting": "[5]", "result": "> 29.9 µM (not active)"}]}
{"smiles": "O=C(Nc1ccccc1N1CCOCC1)c1cc(-c2ccco2)nc2ccccc12", "values": [{"measurement": "IC50", "setting": "[6]", "result": "9.81 µM (active)"}, {"measurement": "IC50", "setting": "[7]", "result": "95.1 µM (inactive)"}, {"measurement": "IC50", "setting": "[8]", "result": "48.2 µM (active)"}, {"measurement": "IC50", "setting": "[9]", "result": "3.78 µM (active)"}, {"measurement": "IC50", "setting": "[10]", "result": "1.04 µM (not active)"}, {"measurement": "IC50", "setting": "[11]", "result": "39.3 µM (active)"}]}
{"smiles": "Cc1cc(C(=O)CN2C(=O)C(=O)N(C)C2=O)c(C)n1Cc1ccccc1", "values": [{"measurement": "EC50", "setting": "[12]", "result": "22.3 µM (not active)"}]}
{"smiles": "Cc1cc(C(=O)COC(=O)Cn2cnc3ccccc3c2=O)c(C)n1Cc1ccccc1", "values": [{"measurement": "EC50", "setting": "[12]", "result": "> 30 µM (not active)"}]}
{"smiles": "COc1ccc([C@H]2CC(=O)C=C(c3ccc4c5c(cccc35)CC4)C2)cc1", "values": [{"measurement": "IC50", "setting": "[13]", "result": "> 100 µM (active)"}, {"measurement": "CC50", "setting": "[14]", "result": "> 40 µM (active)"}]}
{"smiles": "COc1cccc(/C=N/Nc2nccnc2Cl)c1O", "values": [{"measurement": "AC50", "setting": "[15]", "result": "2.73 µM (active)"}, {"measurement": "IC50", "setting": "[16]", "result": "7.59 µM (active)"}, {"measurement": "IC50", "setting": "[17]", "result": "3.97 µM (active)"}, {"measurement": "IC50", "setting": "[18]", "result": "3.57 µM (active)"}, {"measurement": "EC50", "setting": "[19]", "result": "> 350 µM (not active)"}, {"measurement": "EC50", "setting": "[20]", "result": "> 150 µM (inactive)"}, {"measurement": "EC50", "setting": "[21]", "result": "6.97 µM (active)"}, {"measurement": "AC50", "setting": "[22]", "result": "6.83 µM (active)"}, {"measurement": "IC50", "setting": "[23]", "result": "9.16 µM (active)"}, {"measurement": "AC50", "setting": "[24]", "result": "2.48 µM (active)"}, {"measurement": "AC50", "setting": "[25]", "result": "3.39 µM (active)"}, {"measurement": "AC50", "setting": "[26]", "result": "4.2 µM (active)"}, {"measurement": "EC50", "setting": "[27]", "result": "1.52 µM (active)"}, {"measurement": "AC50", "setting": "[28]", "result": "3.7 µM (active)"}]}
{"smiles": "O=C(N/N=C/c1ccc(Cl)c([N+](=O)[O-])c1)c1cc(-c2ccc3c4c(cccc24)CC3)[nH]n1", "values": [{"measurement": "EC50", "setting": "[29]", "result": "> 35.4 µM (not active)"}, {"measurement": "EC50", "setting": "[30]", "result": "> 112 µM (not active)"}, {"measurement": "AC50", "setting": "[31]", "result": "3.25 µM (active)"}, {"measurement": "EC50", "setting": "[32]", "result": "> 35.4 µM (not active)"}, {"measurement": "EC50", "setting": "[33]", "result": "> 35.4 µM (not active)"}, {"measurement": "EC50", "setting": "[34]", "result": "> 112 µM (not active)"}]}
